In PMC10851555, “Safinamide, an inhibitor of monoamine oxidase, modulates the magnitude, gating, and hysteresis of sodium ion current” (BMC Pharmacology & Toxicology, 2024):

Key:
MAO-B = conditions: read-out: IC50 for inhibition of MAO-B activity; cited from earlier work
[1] = system: voltage-gated sodium ion (NaV) channels in pituitary GH3 cells; assay: Persistent INa [INa(P)] and Hys(V) induced by upright isosceles-triangular Vramp (3.2 s) in GH3 cells; type: cell-based, rat; conditions: n = 7; for INa(P) amplitude at −10 mV [high-threshold Hys(V) loop]: control 175 ± 14 pA; for INa(P) amplitude at −80 mV [low-threshold Hys(V) loop]: control 288 ± 25 pA
Description: We further investigated whether SAF exposure modulated the magnitude and Hys(V) behavior of INa(P) induced by an isosceles-triangular Vramp in GH3 cells. To record whole-cell currents, the test cells were maintained at −80 mV and subjected to an upright isosceles-triangular Vramp ascending from –110 and +50 mV over 3.2 s (digital-to-analog conversion; Fig. 8A). […] For example, when test cells were subjected to an isosceles-triangular Vramp over 3.2 s (ramp speed of 0.1 mV/ms), the INa(P) amplitudes measured at −10 mV (high threshold) and −80 mV (low threshold) during the control period were 175 ± 14 pA (n = 7) and 288 ± 25 pA (n = 7), respectively. After the addition of 3 and 10 μM SAF, the INa(P) amplitude at −10 mV [high-threshold Hys(V) loop] was 194 ± 17 pA (n = 7, P < 0.05) and 219 ± 18 pA (n = 7, P < 0.05), respectively; the corresponding amplitudes at −80 mV [low-threshold Hys(V) loop] were 348 ± 29 pA (n = 7, P < 0.05) and 389 ± 31 pA (n = 7, P < 0.05), respectively. […] These findings indicate the unique Hys(V) behavior of INa(P) induced by an isosceles-triangular Vramp in GH3 cells; SAF exposure may increase the strength of Hys(V).
Fig. 8 Stimulatory effects of SAF on the voltage-dependent hysteresis [Hys(V)] behavior of persistent INa [INa(P)] induced by upright isosceles-triangular Vramp. Vramp was supplied for 3.2 s (ramp speed of 0.1 mV/ms; digital-to-analog conversion) to induce Hys(V) behavior in GH3 cells. (A) Current traces during the control period (left) and during the exposure to 10 μM SAF (right). The blue and red traces shown in each panel represent currents induced by the upsloping (ascending) and downsloping (descending) limbs of the upright isosceles-triangular Vramp, respectively. The inset indicates the voltage protocol. The dashed arrows indicate the direction of the current trajectory over time. (B) Summary graphs illustrating the effects of SAF (3 and 10 μM), SAF plus MGB, and SAF plus Ran on the amplitude of Vramp-induced INa(P) measured at −10 mV (ascending limb; left side) and −80 mV (descending limb; right side).

[2] = system: single NaV channels in GH3 cells; assay: Cell-attached single-channel NaV current recordings in GH3 cells; type: cell-based, rat; conditions: n = 7
Experimental: The composition of the external or bath solution [4-(2-hydroxyethyl)-1-piperazineethanesulfonic acid (HEPES)-buffered normal Tyrode’s solution] was as follows: 136.5 mM NaCl, 1.8 mM CaCl2, 5.4 mM KCl, 0.53 mM MgCl2, 5.5 mM glucose, and 5.5 mM HEPES–NaOH (pH 7.4). To measure K^+ currents (data not shown), we filled a patch pipette with an internal solution comprising 140 mM KCl, 1 mM MgCl2, 3 mM adenosine 5′-triphosphate disodium salt, 0.1 mM guanosine 5′-triphosphate disodium salt, 0.1 mM ethylene glycol tetraacetic acid, and 5 mM HEPES–KOH buffer (pH 7.2). To record the whole-cell INa, the K^+ in the internal solution was substituted with Cs^+, and the pH of the solution was adjusted to 7.2 by adding cesium hydroxide. In the single-channel experiments performed to record NaV currents, the pipette was filled with a Na^+-rich solution containing 136 mM NaCl, 0.53 mM MgCl2, 5.5 mM glucose, and 5.5 mM HEPES–NaOH (pH 7.2). The bath medium was a K^+-rich solution comprising 130 mM KCl, 10 mM NaCl, 3 mM MgCl2, 6 mM glucose, and 10 mM HEPES-KOH (pH 7.4). The solutions and culture media were generally filtered on the day of use by using sterile Acrodisc Syringe Filters containing a 0.2-μm Supor Membrane (Bio-Check; New Taipei City, Taiwan).
Single-channel NaV currents induced by depolarizing pulses ranging from −100 to −10 mV were measured and subsequently analyzed using pCLAMP 10.7. The opening events of the channels were generally evaluated through multi-Gaussian adjustments of the distribution of amplitude across channels. Functional independence between channels was determined by comparing the observed stationary probabilities with the values calculated based on the binomial law. For dwell-time analyses, only a single channel was used in the patch-clamp experiment.
To elucidate the mechanisms underlying the effects of SAF on the magnitude of INa, we investigated the actions of SAF and SAF plus MGB on single-channel NaV currents. This experiment was performed using the cell-attached configuration of the voltage-clamp test. Test cells were placed in K^+-rich solution, and the recording pipette was filled with Na^+-rich solution. SAF (10 μM) increased channel activity and decelerated current inactivation when the cells were exposed to depolarization stimuli ascending from –100 to –10 mV (rate of 0.1 Hz; Fig. 9A). Furthermore, the addition of MGB (10 μM) in the presence of 10 μM SAF reduced the probability of channel opening. […] Moreover, with the presence of 10 μM SAF, the mean open time of NaV channels was prolonged to […] (n = 7, P < 0.05) msec from a control value of 2.3 ± 0.3 msec (n = 7). […] Consistent with these findings, the mean open time of the NaV channel in the presence of 10 μM SAF (5.9 ± 1.1 ms; n = 7; P < 0.05) was longer than that in the control period (2.3 ± 0.3 ms, n = 7); the subsequent further addition of 10 μM MGB decreased the mean open time to 3.7 ± 0.7 ms (n = 7, P < 0.05) (Fig. 9B). […] MGB added during SAF exposure reversed the SAF-induced increase in NaV channel activity.

C[C@H](NCc1ccc(OCc2cccc(F)c2)cc1)C(N)=O [SAF, (S)-2-((4-((3-fluorobenzyl)oxy)benzyl)amino)propanamide]
IC50 (MAO-B): […] | INa(P) amplitude at −10 mV [high-threshold Hys(V) loop] ([1]; 3 μM SAF): 194 ± 17 pA | INa(P) amplitude at −80 mV [low-threshold Hys(V) loop] ([1]; 3 μM SAF): 348 ± 29 pA | INa(P) amplitude at −10 mV [high-threshold Hys(V) loop] ([1]; 10 μM SAF): 219 ± 18 pA | INa(P) amplitude at −80 mV [low-threshold Hys(V) loop] ([1]; 10 μM SAF): 389 ± 31 pA | channel activity (open-state probability) of NaV channels ([2]; 10 μM SAF, control 0.027 ± 0.007): 0.091 ± 0.006 | mean open time of the NaV channel ([2]; 10 μM SAF, control 2.3 ± 0.3 ms, second statement (Fig. 9B)): 5.9 ± 1.1 ms | mean open time of NaV channels ([2]; 10 μM SAF, control 2.3 ± 0.3 msec, first statement): 6.5 ± 0.7 ms | amplitude of the single-channel current ([2]; SAF 10 μM, control 2.01 ± 0.35 pA): 2.03 ± 0.37 pA
